Patent publication US12528790B2, “Amide derivative having antiviral activity” (Shionogi & Co., Ltd., priority 2020, dated 2026)
Like-named read-outs stand apart in the source and are kept apart here.

What was measured:
[1] = tested on: RSV B (Wash/18537 strain); test: In vitro CPE (CytoPathic Effect) inhibition effect evaluation test, RSV type B; format: cell-based
Method in brief: (§1)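 EC50 is the concentration giving 50% inhibition of virus-induced cytopathic effect, fitted by nonlinear regression from CellTiter-Glo 2.0 viability. Compounds in 3-fold series were co-incubated at 37 °C with HEp-2 cells and RSV: A2 strain for 4 days, B (Wash/18537) for 5 days; uninfected wells served as control.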

RSV A2 strain = test: In vitro CPE (CytoPathic Effect) inhibition effect evaluation test, RSV type A; format: cell-based
Method in brief: as §1

[2] = human respiratory syncytial virus, inhibitory effect against RSV type B, CPE inhibition, read-out: EC50
[3] = human respiratory syncytial virus, inhibitory effect against RSV type A (RSV A2 strain), HEp-2 cells, CPE inhibition, read-out: EC50
[4] = human respiratory syncytial virus, HEp-2, 120 h, HEp-2 cells, RSV B (Wash/18537 strain), 5 days, CellTiter-Glo, read-out: EC50, inhibitory effect against RSV type B (CPE inhibition)
[5] = human respiratory syncytial virus, HEp-2, 96 h, read-out: EC50, inhibitory effect against RSV type A (CPE inhibition)

Row | SMILES | EC50 [1, 2] | EC50 (RSV A2 strain; [3]) | also measured
1 | CC(F)(F)c1nc(N2CC3(CCOCC3)c3cc(O[C@H]4CC[C@H](NCC(F)(F)F)CC4)ccc32)ncc1C(=O)NC1(C(=O)O)C2CC3CC(C2)CC1C3 (stereo partly shown) [Compound I-552] | < 10 nM | < 10 nM | –
2 | O=C(NC1(C(=O)O)C2CC3CC(C2)CC1C3)c1cnc(N2CC3(CCCCC3)c3cc(OC4CCN(CC(F)(F)F)CC4)ccc32)nc1C(F)(F)F (stereo not shown) [Compound I-382] | 10 to 100 nM | < 10 nM | –
3 | COCCCCOc1ccc2c(c1C)CCN2c1ncc(C(=O)NC2(C(=O)O)CCCCC2)c(C(F)(F)F)n1 [Compound I-1] | 100 to 5000 nM | 10 to 100 nM | –
4 | O=C(NC1(C(=O)O)C2CC3CC(C2)CC1C3)c1cnc(N2CC3(CCOCC3)c3cc(OC4CCN(c5ncc(F)cn5)CC4)ncc32)nc1C(F)(F)F (stereo not shown) [Compound I-402] | < 10 nM | < 10 nM | –
5 | O=C(NC1(C(=O)O)C2CC3CC(C2)CC1C3)c1ccc(-c2cn(C3CCC4(CC3)COC4)c3cc(O[C@H]4CC[C@H](N5CC(F)(F)C5)CC4)ccc23)nc1C(F)(F)F (stereo partly shown) [Compound I-582] | < 10 nM | < 10 nM | –
6 | CC(F)(F)c1nc(N2CC3(CCOCC3)c3cc(OC4CCN(c5ncc(F)cn5)CC4)ncc32)ncc1C(=O)N[C@]1(C(=O)O)[C@@H]2CC3C[C@H]1C[C@@](F)(C3)C2 [Compound I-599] | < 10 nM | < 10 nM | –
7 | O=C(NC1(C(=O)O)C2CC3CC(C2)CC1C3)c1cnc(N2CC3(CCOCC3)c3cc(OCCC(F)(F)F)ncc32)nc1C(F)(F)F (stereo not shown) [Compound I-489] | < 10 nM | < 10 nM | –
8 | O=C(NC1(C(=O)O)C2CC3CC(C2)CC1C3)c1cnc(-c2cn(C3CCC(F)(F)CC3)c3cc(OC4CCN(c5ncccn5)CC4)ncc23)nc1C(F)(F)F (stereo not shown) [Compound I-268] | – | – | EC50 [1, 4]: 4.3 nM; EC50 (RSV A2 strain; [5]): 1.4 nM
9 | COC[C@H](C)n1cc(-c2ccc(C(=O)NC3(C(=O)O)C4CC5CC(C4)CC3C5)c(C(F)(F)F)n2)c2ccc(O[C@H]3CC[C@H](N4CC(F)(F)C4)CC3)cc21 (stereo partly shown) [Compound I-577] | < 10 nM | < 10 nM | –
10 | CC(F)(F)c1nc(N2CC3(CCOCC3)c3cc(OC4CN(c5ncc(F)cn5)C4)ccc32)ncc1C(=O)NC1(C(=O)O)C2CC3CC(C2)CC1C3 (stereo not shown) [Compound I-542] | < 10 nM | < 10 nM | –
11 | CCC(CC)n1cc(-c2ncc(C(=O)NC3(C(=O)O)C4CC5CC(C4)CC3C5)c(C(C)(F)F)n2)c2ccc(O[C@H]3CC[C@H](N4CC(F)(F)C4)CC3)cc21 (stereo partly shown) [Compound I-570] | – | – | EC50 [1, 4]: 2.1 nM; EC50 (RSV A2 strain; [5]): 0.7 nM
12 | O=C(NC1(C(=O)O)C2CC3CC(C2)CC1C3)c1cnc(-c2cn(C3CC3)c3cc(O[C@H]4CC[C@H](N5CC(F)(F)C5)CC4)ccc23)nc1C(F)(F)F (stereo partly shown) [Compound I-497] | < 10 nM | < 10 nM | –
13 | O=C(NC1(C(=O)O)C2CC3CC(C2)CC1C3)c1cnc(N2CC3(CCCCC3)c3cc(O[C@@H]4CCN(c5ncc(F)cn5)C4)ccc32)nc1C(F)(F)F (stereo partly shown) [Compound I-525] | < 10 nM | < 10 nM | –
14 | O=C(NC1(C(=O)O)C2CC3CC(C2)CC1C3)c1ccc(-c2cn(-c3ccccn3)c3cc(OC4CCN(c5ncccn5)CC4)ccc23)nc1C(F)(F)F (stereo not shown) [Compound I-175] | < 10 nM | < 10 nM | –
15 | CC(F)(F)CN1CCC(Oc2ccc3c(-c4ncc(C(=O)NC5(C(=O)O)C6CC7CC(C6)CC5C7)c(C(F)(F)F)n4)cn(C4CCC(F)(F)CC4)c3c2)CC1 (stereo not shown) [Compound I-422] | < 10 nM | < 10 nM | –
16 | O=C(NC1(C(=O)O)C2CC3CC(C2)CC1C3)c1cnc(N2CC3(CCOCC3)c3cc(O[C@H]4CC[C@H](n5cccn5)CC4)ccc32)nc1C(F)(F)F (stereo partly shown) [Compound I-193] | < 10 nM | < 10 nM | –

Row | SMILES | EC50 [1, 2] | EC50 (RSV A2 strain; [3]) | also measured
17 | O=C(NC1(C(=O)O)C2CC3CC(C2)CC1C3)c1cnc(-c2cn(C3CCC(F)(F)CC3)c3cc(OC4CCC(OC5CC5)CC4)ccc23)nc1C(F)(F)F (single isomer, unassigned) [Compound I-478] | < 10 nM | < 10 nM | –
18 | O=C(N[C@]1(C(=O)O)[C@@H]2CC3C[C@H]1C[C@@](F)(C3)C2)c1cnc(N2CC3(CCOCC3)c3cc(OC4CCN(c5ncccn5)CC4)ccc32)nc1C(F)(F)F [Compound I-165] | – | – | EC50 [1, 4]: 0.62 nM; EC50 (RSV A2 strain; [5]): 0.37 nM
19 | O=C(NC1(C(=O)O)C2CC3CC(C2)CC1C3)c1cnc(N2CC3(CCCCC3)c3cc(CN4CCN(c5ncccn5)CC4)ccc32)nc1C(F)(F)F (stereo not shown) [Compound I-463] | 100 to 5000 nM | < 10 nM | –
20 | CC(F)(F)c1nc(-c2cn(C3CC3)c3cc(O[C@H]4CC[C@H](N5CC(F)(F)C5)CC4)ccc23)ncc1C(=O)NC1(C(=O)O)C2CC3CC(C2)CC1C3 (stereo partly shown) [Compound I-530] | < 10 nM | < 10 nM | –
21 | O=C(NC1(C(=O)O)C2CC3CC(C2)CC1C3)c1cnc(N2CC3(CCCCC3)c3cc(OC4CCC(N5CC(F)(F)C5)CC4)ccc32)nc1C(F)(F)F (stereo not shown) [Compound I-438] | < 10 nM | < 10 nM | –
22 | O=C(NC1(C(=O)O)C2CC3CC(C2)CC1C3)c1ccc(-c2cn(-c3cccnc3)c3cc(OC4CCN(c5ncccn5)CC4)ccc23)nc1C(F)(F)F (stereo not shown) [Compound I-177] | < 10 nM | < 10 nM | –
23 | O=C(NC1(C(=O)O)C2CC3CC(C2)CC1C3)c1cnc(N2CC3(CCCCC3)c3cc(C(=O)N4CCN(CC(F)(F)F)CC4)ccc32)nc1C(F)(F)F (stereo not shown) [Compound I-505] | < 10 nM | < 10 nM | –
24 | O=C(NC1(C(=O)O)C2CC3CC(C2)CC1C3)c1cnc(N2CC3(CCOCC3)c3cc(OCCC4CCOCC4)ccc32)nc1C(F)(F)F (stereo not shown) [Compound I-83] | – | – | EC50 ([1]; inhibitory effect against RSV type B, CPE inhibition, read-out: EC50): < 10 nM; EC50 (RSV A2 strain; inhibitory effect against RSV type A (RSV A2 strain), HEp-2 cells, CPE inhibition, read-out: EC50): < 10 nM
25 | CC(F)(F)c1nc(N2CC3(CC3)c3cc(OC4CCN(CC(F)(F)F)CC4)ccc32)ncc1C(=O)NC1(C(=O)O)C2CC3CC(C2)CC1C3 (stereo not shown) [Compound I-604] | < 10 nM | < 10 nM | –
26 | O=C(NC1(C(=O)O)C2CC3CC(C2)CC1C3)c1cnc(N2CC3(CCOC3)c3cc(OC4CCN(c5ncccn5)CC4)ccc32)nc1C(F)(F)F (racemic) [Compound I-257] | < 10 nM | < 10 nM | –
27 | O=C(NC1(C(=O)O)C2CC3CC(C2)CC1C3)c1cnc(-c2cn(C3CCC(F)(F)CC3)c3cc(OC4CC5(C4)CN(c4ncc(F)cn4)C5)ccc23)nc1C(F)(F)F (stereo not shown) [Compound I-407] | 100 to 5000 nM | < 10 nM | –
28 | CC(F)(F)c1nc(N2CC3(CCOCC3)c3cc(O[C@H]4CC[C@@H](N5CC(F)(F)C5)CC4)ccc32)ncc1C(=O)NC1(C(=O)O)C2CC3CC(C2)CC1C3 (stereo partly shown) [Compound I-586] | < 10 nM | < 10 nM | –
29 | CC(F)(F)c1nc(N2CC3(CCOCC3)c3cc(OC4CCN(C5CSC5)CC4)ccc32)ncc1C(=O)NC1(C(=O)O)C2CC3CC(C2)CC1C3 (stereo not shown) [Compound I-564] | < 10 nM | < 10 nM | –
30 | O=C(NC1(C(=O)O)C2CC3CC(C2)CC1C3)c1cnc(N2CC3(CCCCC3)c3cc(OC4CCN(CC5(F)COC5)CC4)ccc32)nc1C(F)(F)F (stereo not shown) [Compound I-484] | 10 to 100 nM | < 10 nM | –
31 | O=C(NC1(C(=O)O)C2CC3CC(C2)CC1C3)c1cnc(-c2cn(C3CCC(F)(F)CC3)c3cc(OC4CC(N5CC(F)(F)C5)C4)ccc23)nc1C(F)(F)F (single isomer, unassigned) [Compound I-412] | 10 to 100 nM | < 10 nM | –
32 | O=C(NC1(C(=O)O)C2CC3CC(C2)CC1C3)c1cnc(N2CC3(CCOCC3)c3cc(OC4CCN(C5COC5)CC4)ccc32)nc1C(F)(F)F (stereo not shown) [Compound I-184] | < 10 nM | < 10 nM | –
